Test system: E. coli (ATCC25922)
Assay: Susceptibility test of microorganism to antibiotic by real-time capacitance change on interdigitated-electrode PET biosensor
Assay type: cell-based, Escherichia coli
Conditions: antibiotic 0.5 to 8 μg/mL; for susceptibility of E. coli (ATCC25922) to antibiotic: 10^5 cells/mL; for capacitance change after treatment with antibiotic: E. coli (ATCC25922) 10^5 cells/mL
Description: The strain used in the experiment was Escherichia coli (ATCC25922), and a standard strain was purchased from ATCC of the United States and used. For the culture of the strain, the Mueller-Hinton media (MH media), which is a culture medium recommended by the US standard CLSI and European standard EUCAST, was purchased from DIFCO and used according to the recommended preparation method in the product manual. After culturing the strain in the MH media for 24 hours, the strain culture medium was adjusted to McFarland OD 0.5, and then diluted 1/100 with the culture medium (strain concentration: 5×10^5 to 10^6 cfu/mL) and treated on the sensor.
The susceptibility of microorganisms to antibiotics was measured by using the sensors fabricated in Examples 1 and 2.

[1] = sensor of Example 1 (PET substrate-Ag electrode), FIG. 4b
[2] = sensor of Example 2 (PET substrate-Au electrode), FIG. 5c

CC1(C)S[C@@H]2[C@H](NC(=O)[C@H](N)c3ccccc3)C(=O)N2[C@H]1C(=O)O [ampicillin]
susceptibility of E. coli (ATCC25922) to antibiotic [1]: tolerance (resistance)
capacitance change after treatment with antibiotic [1]: significantly increased capacitance change
susceptibility of E. coli (ATCC25922) to antibiotic [2]: resistance
capacitance change after treatment with antibiotic [2]: capacitance change significantly increased
